Consider 98 compounds from ChEMBL document CHEMBL3507680, “University of Dundee, Gates Library screen for HepG2 cell viability”.

SMILES strings stand for the structures.

The data set can be described thus: Human HepG2 cell viability assay in 384 well format. Details: dose 125 nL, time 70.5 hour; concentration not given beside the values. The note with it: HepG2 cells, read-out: Inhibition. Type of data set: toxicity, cell-based.
Consider `Cn1ccnc1CN1CCc2ncnc(N3CCCC(C#N)C3)c2CC1` (stereo not drawn), for which the cytotoxicity at 70.5 h worked out at 26.4%. Turning to `Cn1nccc1NC(=O)c1cccc(CN2C[C@H]3CC[C@@H](C2)N3)c1`, the cytotoxicity at 70.5 h was -1.03%. For `Cc1oc(C(C)C)cc1C(=O)N1C[C@H]2CC[C@@H]1CN(C(=O)N(C)C)C2` the value was 3.52%; for `CCc1ccc2nc(NCCCN(CCO)CCO)cc(C)c2c1`, -3.69%. In the case of `CCn1c(N)nc2cc(C(=O)N3CCCN(C)CC3)cnc21`, the cytotoxicity at 70.5 h came to 3.17%. The result for `Cc1cc(C)c(C#N)c(N2CCC3(CCCN(CCO)C3=O)C2)n1` (stereo not drawn) reads 12.1%; that for `c1cncc(C[C@@H]2CC[C@H](CN3CCCOCC3)O2)c1`, -10.6%; that for `O=C(CSCC1CC1)N1CCCC(c2nccn2Cc2cccnc2)C1` (stereo not drawn), -9.29%. On to `O=C1CCC2(CCCN(Cc3nnc(C4CC4)o3)C2)CN1CCO` (stereo not drawn), for which the cytotoxicity at 70.5 h turned out to be 3.23%. As to `COCC(=O)N1CCCN(Cc2cc(C(C)C)no2)CC1`, the cytotoxicity at 70.5 h came to 12.3%. As for `CC(=O)NCCNC(=O)CCn1c(C)cc2ccccc21`, the cytotoxicity at 70.5 h was -3.8%.

Consider `COC(=O)c1ccc(N2CCN(C(=O)CCCc3cn[nH]c3)CC2)cc1`, for which the cytotoxicity at 70.5 h is -2.65%. For `CCN(C(C)=O)C1CCN(c2nccc(C3CCCC3)n2)C1` (stereo not drawn) the value was -30.2%; for `CCc1cc(N(C)CCc2c(C)n[nH]c2C)ncn1`, 26.8%. For the compound `Cc1cc2[nH]c(CN3CCOC(c4ccc(F)cc4)C3)cc(=O)n2n1` (stereo not drawn), the cytotoxicity at 70.5 h is -3.51%. For `Cc1nc2c(c(=O)n1C)CCN(C(=O)CCc1ccccc1O)CC2`, the cytotoxicity at 70.5 h was -6.87%. With `CN(Cc1ccc2nsnc2c1)C(=O)Cn1ncc(N(C)C)cc1=O`, the cytotoxicity at 70.5 h is -7.03%. Consider `Cc1nn(C)c2nc(NCCN3CCCC(C(N)=O)C3)sc12` (stereo not drawn), for which the cytotoxicity at 70.5 h is -13.4%. With `Cn1ncc2c(N3CCCC(C)(O)C3)nc(C(C)(C)C)nc21` (stereo not drawn), the cytotoxicity at 70.5 h is -7.72%. In the case of `COCCn1cnnc1CN(C)c1nc(N)ncc1C`, the cytotoxicity at 70.5 h is -14.6%. For `Cc1nc(NC(=O)NC2CC(=O)N(C(C)C)C2)nn1C(C)C` (stereo not drawn) the value was -0.942%. Turning to `CC(C)C1CN(Cc2nccn2C(C)C)CCC(=O)N1CC1CC1` (stereo not drawn), the cytotoxicity at 70.5 h turned out to be 0.0298%. For the compound `CC(C)N1C[C@H](NC(=O)c2coc(COc3cccc(F)c3)n2)[C@@H](O)C1`, the cytotoxicity at 70.5 h was determined as 2.02%. For `COc1ccc(-n2c(CCC(=O)O)nc3ccccc32)cc1CO` the value was 4.28%. Turning to `O=C(CN1C(=O)CCNC1=O)N1CCC2(CCc3ccccc32)CC1`, the cytotoxicity at 70.5 h is 16.2%. As for `O=c1cc(N2CCCC2)cnn1CCc1cccc(F)c1`, the cytotoxicity at 70.5 h was determined as 34.6%. `COCc1noc(CCNC(=O)c2ccc(C3CCCO3)s2)n1` (stereo not drawn): the cytotoxicity at 70.5 h came out at 8.28%. In the case of `CN1CCCC2(CCN(C(=O)Cn3ncc4ccccc4c3=O)C2)C1=O` (stereo not drawn), the cytotoxicity at 70.5 h came to 9.09%. Consider `CCc1ncc(C(=O)N(CC)CCOC)cn1`, for which the cytotoxicity at 70.5 h was -1.19%. On to `COc1nc2ccn(CCc3scnc3C)c(=O)c2cc1C#N`, for which the cytotoxicity at 70.5 h is -4.15%. With `OCC1(Cc2cccc(Cl)c2)CCCN(c2ncccn2)C1` (stereo not drawn), the cytotoxicity at 70.5 h came to 28.5%. For `CC1(Cc2ccccn2)NCCc2[nH]cnc21` (stereo not drawn) the value was -1.72%; for `O=C(O)CC[C@@H]1CN(c2ncccc2F)CC[C@@H]1N1CCOCC1`, -8.92%.

With `COCCC(=O)N(C)CCC1=CCN(C)CC1`, the cytotoxicity at 70.5 h was 33%.

For the compound `O=C(NCc1ccc2[nH]c(=O)[nH]c2c1)c1ccc(CN2CCCC2)o1`, the cytotoxicity at 70.5 h was -9.98%.

Regarding `Cc1cc(CN(C)C(=O)C(c2ccccc2F)N(C)C)ccn1` (stereo not drawn), the cytotoxicity at 70.5 h was -7.87%.

Regarding `CC(C)n1ccnc1C1CCN(c2nccc(C(F)(F)F)n2)CC1`, the cytotoxicity at 70.5 h was 5.98%.

As to `COc1ccc(Cc2noc(-c3ccc(NC(C)CO)nc3)n2)cc1` (stereo not drawn), the cytotoxicity at 70.5 h worked out at 3.07%. As to `CC(C)(O)c1cn(C2CCN(C(=O)CCC(F)(F)F)CC2)nn1`, the cytotoxicity at 70.5 h is -2.56%. Turning to `CCC(C)N(Cc1cnc(NC(C)C)nc1)Cc1ccsc1` (stereo not drawn), the cytotoxicity at 70.5 h was -4.23%. The result for `Cc1nc(CN2CCC(C(=O)O)(n3ccc(C(C)C)n3)CC2)co1` reads -0.222%. In the case of `Cc1cc(C)c2c(c1)NC(=O)C2CC(=O)O` (stereo not drawn), the cytotoxicity at 70.5 h was -4.36%. Regarding `CCOCCNC(=O)C1CCC(=O)N(CCc2ccc(Cl)cc2)C1` (stereo not drawn), the cytotoxicity at 70.5 h was -3.36%. As for `CC(C)CN(Cc1ccc(C(F)(F)F)nc1)Cc1cnn(C)c1`, the cytotoxicity at 70.5 h was -3.14%. In the case of `O=C(c1ccc(S(=O)(=O)N2CCNCC2)cc1)N1CCCC(O)C1` (stereo not drawn), the cytotoxicity at 70.5 h is -16.1%. Consider `COc1cc2c(cc1CN1CCC3(CCCN(C)C3=O)C1)OCCO2` (stereo not drawn), for which the cytotoxicity at 70.5 h was -15.9%. Consider `CC(Nc1nccc(CCC(F)(F)F)n1)c1nc(-c2ccccn2)no1` (stereo not drawn), for which the cytotoxicity at 70.5 h is -2.61%. Consider `CCNC(=O)[C@@H]1C[C@H](NC(=O)c2cc(=O)[nH]c3ccc(C)cc23)CN1C`, for which the cytotoxicity at 70.5 h was -7.81%. For `Cn1c(Cn2ncc(N3CCCC3)cc2=O)nc2ccccc21` the value was 25.6%.

As to `Cn1nc(C2CC2)c2c1NC(=O)CC2c1cc(CN2CCCC2)cs1` (stereo not drawn), the cytotoxicity at 70.5 h was -8.83%. In the case of `c1ccc(SCCN2CCN(CCn3cncn3)CC2)cc1`, the cytotoxicity at 70.5 h is -22.3%. For `c1ccc(CN2C[C@H]3CC[C@@H]2CN(Cc2nnc(C4CC4)o2)C3)cc1` the value was -1.91%; for `O=C(Cn1cccc1)NCC1CCN(Cc2cc3ccccc3[nH]2)C1` (stereo not drawn), -16.5%; for `COCCCC1(CO)CCCN(Cc2ccc(F)c(OC)c2)C1` (stereo not drawn), 9.96%. For `CCCc1nc(C)c(CNc2nc(C)nc3oc(C)nc23)s1` the value was -8.14%; for `CCc1cc(NC2CCOCC2)n2nc(C)c(C)c2n1`, -10.6%; for `COCCOC1CCN(C(C(=O)O)c2ccc(OC)c(F)c2)CC1` (stereo not drawn), -6%. In the case of `O=C(c1ccoc1)N1CCCN(C(=O)c2ccc(C3CCCN3)s2)CC1` (stereo not drawn), the cytotoxicity at 70.5 h was -7.17%. For `CN(C)CC1(O)CCN(Cc2cnc3c(-c4ccccc4)cnn3c2)C1` (stereo not drawn) the value was -4.22%.

As to `CC(N)C(=O)N1CCC(Oc2cccc(C(F)(F)F)c2)CC1` (stereo not drawn), the cytotoxicity at 70.5 h came to 11.5%. Consider `Cc1cnc(CNC(=O)C2CCOc3ccccc3C2)cn1` (stereo not drawn), for which the cytotoxicity at 70.5 h is -19.3%. Take `CN1CCN(Cc2cnc(S(=O)(=O)CC3CC3)n2CC2CCCO2)CC1` (stereo not drawn): the cytotoxicity at 70.5 h is -4.87%. `Cn1ccnc1CN1C[C@@H](CN2CCCCC2)[C@@H](CO)C1`: the cytotoxicity at 70.5 h is -6.64%. In the case of `COc1ccc(CN2CCC3(CCCNC3)C2)cc1Cn1cccn1` (stereo not drawn), the cytotoxicity at 70.5 h is 3.97%. The result for `CCN(C)CC(C)Cn1cnc(-c2ccccc2)c1C` (stereo not drawn) reads -15.1%; that for `CC[C@@]1(O)CCN(c2ncc(Cl)cc2F)C[C@H]1O`, -13.4%. For `CCCc1cc(CNC2CCN(c3nc(C)cc(C)n3)CC2)on1`, the cytotoxicity at 70.5 h was -5.05%. The result for `CCC[C@@H]1CN(C(=O)c2cc3ccccc3s2)C[C@H]1NS(C)(=O)=O` reads -2.51%; that for `CCN(C)C(=O)CN1CCC(c2cc(N3CCOCC3)nc(C)n2)CC1`, -6.04%.

For `Cc1ccc(C)c(OCc2cc(C(=O)N(C)CC(O)CO)no2)c1` (stereo not drawn), the cytotoxicity at 70.5 h is -4.59%. On to `CCc1ncc(S(C)(=O)=O)c(C2CCCNC2)n1` (stereo not drawn), for which the cytotoxicity at 70.5 h was -5.94%. In the case of `CN(CCc1ccccc1)c1cnn(CC2COCCO2)c(=O)c1` (stereo not drawn), the cytotoxicity at 70.5 h was -4.1%. For `Cc1ccc(-c2c(-c3ccccc3)ncn2CCCN2CCOCC2)o1` the value was -11.8%; for `OC1CCCN(CCNc2ncc(Cl)cc2F)C1` (stereo not drawn), 16.2%; for `CO[C@H]1CNC[C@@H]1NC(=O)c1cc(C)nc2c(C)c(C)ccc12`, 5.29%. For the compound `Cc1nc(CN2CCN(C(=O)C(c3ccccc3C)N(C)C)CC2)no1` (stereo not drawn), the cytotoxicity at 70.5 h is -7.12%.

With `Cn1c(N2CCOCC2)nc2cc(C(=O)N3CCCOCC3)ccc21`, the cytotoxicity at 70.5 h is -12.1%. On to `Cc1ccccc1CN1CCN(C(=O)c2ccn(C(C)(C)C)c2)CC1`, for which the cytotoxicity at 70.5 h is 16.3%. For the compound `Cc1nc(C(=O)N2CCCCC2c2ccc(CN(C)C)cc2)c(C)o1` (stereo not drawn), the cytotoxicity at 70.5 h is -4.13%. Regarding `CCN(CCN(C)C)c1nc(CCN)nc2sc(C)c(C)c12`, the cytotoxicity at 70.5 h came out at 8.66%.

In the case of `O=C(NC[C@@H]1CCCO1)c1ccc(S(=O)(=O)N[C@@H]2CCNC2)cc1`, the cytotoxicity at 70.5 h was found to be 6%.

For `CCCc1n[nH]cc1C(=O)NCC1COc2cc(OC)ccc2C1` (stereo not drawn), the cytotoxicity at 70.5 h was 14.2%. Regarding `CCc1nc(C)sc1CN1CC[C@@](O)(CCOC)[C@H](C)C1`, the cytotoxicity at 70.5 h was -5.48%. `Cc1nccn1CCCN1CCCC(c2ccccc2)C1` (stereo not drawn): the cytotoxicity at 70.5 h was -1.68%. Regarding `O=C(c1cccs1)N1CC(Oc2ccccc2Cl)C1`, the cytotoxicity at 70.5 h is -0.814%. With `CNc1ncccc1C(=O)N1CCCC2(CCN(C)CC2)CC1`, the cytotoxicity at 70.5 h was -1.7%. On to `COc1ccc(OC)c(C2CCN(CC(C)(C)N3CCOCC3)C2)c1` (stereo not drawn), for which the cytotoxicity at 70.5 h was -4.45%.

With `CC(C)C1CN(C(=O)c2cn3ccccc3n2)CCCN1CC1CC1` (stereo not drawn), the cytotoxicity at 70.5 h is -10.1%. As to `c1ccc(OCCSC2=NCCN2)cc1`, the cytotoxicity at 70.5 h was -2.35%. For the compound `Cc1nc(-c2nnc(SCC(=O)O)n2C(C)c2ccccc2)co1` (stereo not drawn), the cytotoxicity at 70.5 h was -10%. As to `Cc1nc(O)cc(C2CCCN(C(=O)COCc3ccccc3)C2)n1` (stereo not drawn), the cytotoxicity at 70.5 h was 1.06%. Regarding `CCOCCC(=O)N(C)CC1Cc2ccccc2CN1C` (stereo not drawn), the cytotoxicity at 70.5 h is -0.994%. Turning to `CCCn1c(C)c(CC(=O)NC(C)(C)CO)c2c1CC(C)(C)CC2=O`, the cytotoxicity at 70.5 h was determined as 0.294%. Turning to `Cc1ccc(C(=O)N2CCCC(N)CC2)cc1N1CCNC1=O` (stereo not drawn), the cytotoxicity at 70.5 h is -2.27%. As for `O=C(O)[C@@H]1CN(C(=O)CCc2ccccn2)C[C@H]1c1ccccc1`, the cytotoxicity at 70.5 h is -4.59%. The result for `c1cc(CCNc2ncnc3c2CCN(Cc2ccoc2)CC3)ccn1` reads 0.564%; that for `COCCCN1C(=O)CC[C@H]2CN(Cc3ccc4occc4c3)CC[C@H]21`, 26.4%; that for `COC(C)(C)C(=O)NCC1CCN(Cc2cc3ccccc3[nH]2)C1` (stereo not drawn), -17.4%.
